Values of other authors, collected in patent publication US20090004290A1, “RED YEAST RICE COMPOUND FOR CANCER CHEMOPREVENTION” (priority 2007, published 2009).

Legend:
[1] = test system: lung cancer
[2] = test system: total, breast, colorectal, or other site-specific cancers; conditions: 100 mg alternate day, average 10 years of treatment, women
[3] = test system: lung cancer; conditions: interim analysis of over 3200 participants
[4] = test system: lung cancer; conditions: secondary endpoint; follow up of over 1300 participants; selenium supplementation

SMILES: Cc1c(C)c2c(c(C)c1O)CC[C@@](C)(CCC[C@H](C)CCC[C@H](C)CCCC(C)C)O2 [Alpha-tocopherol]
- mortality due to hemorrhagic stroke ([1]; participants that received Alpha-tocopherol): higher mortality
- decrease incidence of lung cancer ([1]; participants with highest blood levels vs quartile with lowest levels): 19%

SMILES: CC(=O)Oc1ccccc1C(=O)O [aspirin, acetylsalicylic acid]
- risk of total, breast, colorectal, or other site-specific cancers [2]: does not lower risk

SMILES: [Cu] [copper, Copper]
- trend of lung cancer with supplementation / dietary intake [3]: protective trend

SMILES: [Se] [selenium, Selenium]
- trend of lung cancer with supplementation / dietary intake [3]: significant inverse trend
- hazard ratio (lung cancer) [4]: 0.56

SMILES: [Zn] [zinc, Zinc]
- trend of lung cancer with supplementation / dietary intake [3]: significant chemoprotective trend
